Values belong to the compound of their own block, whether it stands above or below them. Active and inactive are the calls of the source. The rule behind the calls is not given here.
Tests used:
[1] = system: SK-MEL-2; test: Downregulation of phosphorylated mTOR in human SK-MEL-2 cells expressing NRAS mutant incubated for 48 hrs by Western blot analysis; type: functional, cell-based; conditions: dose <= 1.5 µM
[2] = system: SK-MEL-2; test: Induction of apoptosis in human SK-MEL-2 cells assessed as late apoptotic cells at 1.5 uM measured after 24 hrs by PI/FITC Annexin V staining based flow cytometry; type: functional, cell-based
[3] = Disruption of DHX36/NRAS RNA G-quadruplex 5'-r(UGUGGGAGGGGCGGGUCUGGG)-3' (unknown origin) using RNA substrate incubated for 1 hr by ELISA method
[4] = system: SK-MEL-2; test: Cytotoxicity against human SK-MEL-2 cells assessed as inhibition of cell viability treated for 72 hrs measured after 24 hrs; type: functional, cell-based
[5] = system: SK-MEL-2; test: Induction of autophagy in human SK-MEL-2 cells assessed as […] at 1.5 uM measured upto 48 hrs by Western bot analysis; type: functional, cell-based
[6] = system: SK-MEL-2; test: Antitumor activity against human SK-MEL-2 cells xenografted in BALB/c nude mouse assessed as tumor growth inhibition at 1 mg/kg/day, ip by electronic caliper method; type: functional, organism-based; conditions: time 30.0 day, TDE = time-dependent effect
[7] = system: SK-MEL-2; test: Cytotoxicity against human SK-MEL-2 cells expressing Tet-on NRAS Q61R assessed as cell growth inhibition; type: functional, cell-based
[8] = system: DNA; test: Binding affinity to total DNA (unknown origin) by TO displacement assay; type: nucleic-acid assay
[9] = Binding affinity to NRAS RNA G-quadruplex 5'-r(UGUGGGAGGGGCGGGUCUGGG)-3' (unknown origin) by TO displacement assay
[10] = system: RNA [UNDEFINED MUTATION]; test: Binding affinity to NRAS RNA mutant G-quadruplex 5'-r(UGUAAGAGAAGCGAGUCUGAG)-3' (unknown origin) by TO displacement assay; type: nucleic-acid assay
[11] = system: SK-MEL-2; test: Downregulation of phosphorylated ERK in human SK-MEL-2 cells expressing NRAS mutant incubated for 48 hrs by Western blot analysis; type: functional, cell-based; conditions: dose <= 1.5 µM
[12] = system: SK-MEL-2; test: Induction of cell cycle arrest in human SK-MEL-2 cells assessed as accumulation at G2/M phase at 1.5 uM measured after 48 hrs by PI staining based analysis; type: functional
[13] = system: RNA; test: Binding affinity to total RNA (unknown origin) by TO displacement assay; type: nucleic-acid assay
[14] = system: SK-MEL-2; test: Cytotoxicity against human SK-MEL-2 cells expressing NRAS mutant assessed as cell growth inhibition upto 50 uM measured for 12 to 96 hrs by MTT assay; type: functional, cell-based; conditions: time 12-96 hrs
[15] = system: SK-MEL-2; test: Antiproliferative activity against human SK-MEL-2 cells assessed as cell growth inhibition incubated for 24 hrs by EdU assay; type: functional, cell-based; conditions: SK-MEL-2, 24 h
[16] = Binding affinity to NRAS RNA G-quadruplex 5'-r(UGUGGGAGGGGCGGGUCUGGG)-3' (unknown origin) assessed as decrease in TO fluorescence at 0.25 uM by TO displacement assay
[17] = system: SK-MEL-2; test: Cytotoxicity against human SK-MEL-2 cells assessed as cell growth inhibition incubated for 24 hrs by MTT assay; type: functional, cell-based; conditions: SK-MEL-2, 24 h
[18] = system: SK-MEL-2; test: Induction of cell cycle arrest in human SK-MEL-2 cells assessed as accumulation at S phase at 1.5 uM measured after 24 hrs by PI staining based analysis; type: functional
[19] = Stabilization of NRAS RNA G-quadruplex 5'-r(UGUGGGAGGGGCGGGUCUGGG)-3' (unknown origin) at 10 uM
[20] = system: SK-MEL-2; test: Cytotoxicity against human SK-MEL-2 cells overexpressing Tet-on NRAS Q61R assessed as cell growth inhibition in presence of doxycycline; type: functional, cell-based
[21] = system: SK-MEL-2; test: Cytotoxicity against human SK-MEL-2 cells overexpressing Tet-on NRAS Q61R assessed as cell growth inhibition; type: functional, cell-based
[22] = system: SK-MEL-2; test: Cytotoxicity against human SK-MEL-2 cells assessed as inhibition of cell viability treated for 72 hrs measured after 72 hrs; type: functional, cell-based; conditions: SK-MEL-2, 72 h
[23] = system: SK-MEL-2; test: Antitumor activity against human SK-MEL-2 cells xenografted in BALB/c nude mouse assessed as tumor growth inhibition at 1 mg/kg/day, ip administered for 30 days relative to control; type: functional; conditions: SK-MEL-2, 720 h, time 30 day, read-out: TGI
[24] = system: SK-MEL-2; test: Suppression of NRAS protein translation in human SK-MEL-2 cells upto 1.5 uM incubated for 48 hrs by Western blot analysis; type: functional, cell-based
[25] = system: SK-MEL-2; test: Downregulation of phosphorylated ERK in human SK-MEL-2 cells expressing NRAS mutant at 1.5 uM by Western blot analysis; type: functional, cell-based; conditions: time <= 48.0 hrs, TDE = time-dependent effect
[26] = system: SK-MEL-2; test: Antitumor activity against human SK-MEL-2 cells xenografted in BALB/c nude mouse assessed as T/C ratio at 1 mg/kg/day, ip administered for 30 days relative to control; type: functional; conditions: time 30 day
[27] = system: SK-MEL-2; test: Downregulation of NRAS expression in human SK-MEL-2 cells xenografted in BALB/c nude mouse at 1 mg/kg/day, ip administered for 30 days by IHC analysis; type: functional, organism-based; conditions: time 30.0 day
[28] = system: HEK293; test: Binding affinity to NRAS RNA G-quadruplex 5'-r(UGUGGGAGGGGCGGGUCUGGG)-3' (unknown origin) transfected in HEK293 cells assessed as decrease in NRAS […] upto 1.5 uM incubated for 24 hrs by Dual luciferase reporter assay; type: functional, cell-based
[29] = system: SK-MEL-2; test: Cytotoxicity against human SK-MEL-2 cells assessed as inhibition of cell viability treated for 48 hrs measured after 24 hrs; type: functional, cell-based
[30] = system: SK-MEL-2; test: Disruption of DHX36/NRAS RNA G-quadruplex 5'-r(UGUGGGAGGGGCGGGUCUGGG)-3' in human SK-MEL-2 cells at 1.5 uM incubated for 24 hrs by RNA Immunoprecipitation assay; type: cell-based
[31] = system: SK-MEL-2; test: Antitumor activity against human SK-MEL-2 cells xenografted in BALB/c nude mouse assessed as reduction in tumor weight at 1 mg/kg/day, ip administered for 30 days by electronic caliper method; type: functional, organism-based; conditions: time 30.0 day
[32] = system: SK-MEL-2; test: Downregulation of phosphorylated mTOR in human SK-MEL-2 cells expressing NRAS mutant at 1.5 uM by Western blot analysis; type: functional, cell-based; conditions: time <= 48.0 hrs, TDE = time-dependent effect
[33] = system: SK-MEL-2; test: Cytotoxicity against human SK-MEL-2 cells expressing NRAS mutant assessed as cell growth inhibition incubated for 48 hrs by MTT assay; type: functional, cell-based; conditions: SK-MEL-2, 48 h
[34] = Binding affinity to 3'-FAM-labeled to NRAS RNA G-quadruplex 5'-r(UGUGGGAGGGGCGGGUCUGGG)-3' (unknown origin) assessed as dissociation constant by fluorescence quenching assay
[35] = system: SK-MEL-2; test: Antiproliferative activity against human SK-MEL-2 cells assessed as cell growth inhibition incubated for 48 hrs by EdU assay; type: functional, cell-based; conditions: SK-MEL-2, 48 h
[36] = system: SK-MEL-2; test: Cytotoxicity against human SK-MEL-2 cells assessed as inhibition of cell viability treated for 48 hrs measured after 48 hrs; type: functional, cell-based; conditions: SK-MEL-2, 48 h
[37] = system: SK-MEL-2; test: Downregulation of KRAS protein level in human SK-MEL-2 cells upto 1.5 uM incubated for 48 hrs by Western blot analysis; type: functional, cell-based
[38] = system: SK-MEL-2; test: Cytotoxicity against human SK-MEL-2 cells upto 10 uM in presence of CQ; type: functional, cell-based
[39] = system: SK-MEL-2; test: Downregulation of NRAS protein translation in human SK-MEL-2 cells incubated for 24 hrs by Western blot analysis; type: functional, cell-based; conditions: dose <= 1.5 µM
[40] = system: SK-MEL-2; test: Antiproliferative activity against human SK-MEL-2 cells assessed as inhibition of cell survival upto 50 uM incubated for 24 to 96 hrs by MTT assay; type: functional, cell-based; conditions: time 24-96 hrs
[41] = system: SK-MEL-2; test: Cytotoxicity against human SK-MEL-2 cells expressing Tet-on NRAS Q61R assessed as cell growth inhibition in presence of doxycycline; type: functional, cell-based
[42] = system: SK-MEL-2; test: Downregulation of phosphorylated MEK in human SK-MEL-2 cells expressing NRAS mutant incubated for 48 hrs by Western blot analysis; type: functional, cell-based; conditions: dose <= 1.5 µM
[43] = Toxicity in BALB/c mouse xenografted with human SK-MEL-2 cells assessed as change in viscera pattern at 1 mg/kg/day, ip administered for 30 days by HE staining based analysis; type: organism-based; conditions: in vivo, 720 h, time 30 day
[44] = Toxicity in BALB/c mouse xenografted with human SK-MEL-2 cells assessed as change in body weight at 1 mg/kg/day, ip administered for 30 days; type: organism-based; conditions: in vivo, 720 h, time 30 day
[45] = Binding affinity to 5'-FAM-labeled to NRAS RNA G-quadruplex 5'-r(UGUGGGAGGGGCGGGUCUGGG)-3' (unknown origin) assessed as dissociation constant by fluorescence quenching assay
[46] = system: SK-MEL-2; test: Cytotoxicity against human SK-MEL-2 cells upto 10 uM in presence of 3mA; type: functional, cell-based
[47] = system: SK-MEL-2; test: Antiproliferative activity against human SK-MEL-2 cells assessed as cell growth inhibition incubated for 12 hrs by EdU assay; type: functional, cell-based; conditions: SK-MEL-2, 12 h
[48] = system: SK-MEL-2; test: Antiproliferative activity against human SK-MEL-2 cells assessed as inhibition of colony formation at 1.5 uM measured after 10 days by crystal violet staining based assay relative to control; type: functional; conditions: SK-MEL-2, 240 h, time 10 day
[49] = system: SK-MEL-2; test: Downregulation of phosphorylated AKT in human SK-MEL-2 cells expressing NRAS mutant incubated for 48 hrs by Western blot analysis; type: functional, cell-based; conditions: dose <= 1.5 µM

- IC50 [3]: 2.4 µM
- Activity [8]: inactive
- EC50 [9]: 1.6 µM
- Activity [10]: inactive
- Activity [13]: Active
- IC50 [15]: 1.08 µM
- Activity [16]: Active
- Activity [19]: inactive
- Kd [34]: 0.23 µM
- IC50 [35]: 0.49 µM
- Kd [45]: 0.49 µM
- IC50 [47]: 2.05 µM
Compound: CCCCCCCCN=c1ccn(CCCCCCCCCCn2ccc(=NCCCCCCCC)cc2)cc1.Cl.Cl [OCTENIDINE HYDROCHLORIDE]
- Activity [1]: Dose-Dependent Effect
- Activity [2]: Active
- IC50 [4]: 0.48 µM
- Activity [5]: Active
- Activity [6]: Tde
- IC50 [7]: 6.3 µM
- Activity [11]: Dose-Dependent Effect
- Activity [12]: Active
- inhibition [14]: Active
- IC50 [17]: 2.34 µM
- Activity [18]: Active
- Activity [20]: Active
- Activity [21]: Active
- IC50 [22]: 0.46 µM
- inhibition in vivo at 1 mg/kg/day [23]: 52.4%
- Activity [24]: Active
- Activity [25]: Tde
- T/C [26]: 38.5%
- Activity [27]: Active
- Activity [28]: Active
- IC50 [29]: 2.11 µM
- Activity [30]: Active
- Activity [31]: Active
- Activity [32]: Tde
- IC50 [33]: 1.34 µM
- IC50 [36]: 2.1 µM
- Activity [37]: inactive
- Activity [38]: Active
- Activity [39]: Dose-Dependent Effect
- inhibition [40]: Active
- IC50 [41]: 12.4 µM
- Activity [42]: Dose-Dependent Effect
- Activity [43]: Non-Toxic
- Activity [44]: Non-Toxic
- Activity [46]: Active
- inhibition at 1.5 µM [48]: 100%
- Activity [49]: Dose-Dependent Effect

- Kd [45]: 1.29 µM
Compound: CCCCCNc1cc[n+](CCCCCC[n+]2ccc(NCCCCC)cc2)cc1
- IC50 [33]: > 25 µM
